From ChEMBL document CHEMBL1201862, “PubChem BioAssay data set” (2004)
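Each compound was tested at five concentrations against cells in 96-well plates for 48 hours. Here, GI50 denotes the concentration required for 50% inhibition of growth.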 Active and inactive are the calls of the source. No stated cut-off is given here; in the data, active = GI50 up to about 1.1 µM and inactive = higher.

Tests used:
Assay in all cases: NCI anticancer screen, dose series, 48 h
786-0 = test system: 786-0
A498 = test system: A498
A549 = test system: A549
ACHN = test system: ACHN
BT-549 = test system: BT-549
CAKI-1 = test system: CAKI-1
CCRF-CEM = test system: CCRF-CEM
COLO 205 = test system: COLO 205
DU-145 = test system: DU-145
EKVX = test system: EKVX
HCC 2998 = test system: HCC 2998
HCT-116 = test system: HCT-116
HCT-15 = test system: HCT-15
HL-60 = test system: HL-60
HOP-62 = test system: HOP-62
HOP-92 = test system: HOP-92
HT-29 = test system: HT-29
Hs-578T = test system: Hs-578T
IGROV-1 = test system: IGROV-1
K562 = test system: K562
KM12 = test system: KM12
LOX IMVI = test system: LOX IMVI
M14 = test system: M14
MCF7 = test system: MCF7
MDA-MB-231 = test system: MDA-MB-231
MDA-MB-435 = test system: MDA-MB-435
MDA-N = test system: MDA-N
MOLT-4 = test system: MOLT-4
Malme-3M = test system: Malme-3M
NCI-H226 = test system: NCI-H226
NCI-H23 = test system: NCI-H23
NCI-H460 = test system: NCI-H460
NCI-H522 = test system: NCI-H522
NCI/ADR-RES = test system: NCI/ADR-RES
OVCAR-3 = test system: OVCAR-3
OVCAR-4 = test system: OVCAR-4
OVCAR-5 = test system: OVCAR-5
OVCAR-8 = test system: OVCAR-8
PC-3 = test system: PC-3
RPMI-8226 = test system: RPMI-8226
RXF 393 = test system: RXF 393
SF-268 = test system: SF-268
SF-295 = test system: SF-295
SF-539 = test system: SF-539
SK-MEL-28 = test system: SK-MEL-28
SK-MEL-2 = test system: SK-MEL-2
SK-MEL-5 = test system: SK-MEL-5
SK-OV-3 = test system: SK-OV-3
SN12C = test system: SN12C
SNB-19 = test system: SNB-19
SNB-75 = test system: SNB-75
SW-620 = test system: SW-620
T47D = test system: T47D
TK-10 = test system: TK-10
U-251 = test system: U-251
UACC-257 = test system: UACC-257
UACC-62 = test system: UACC-62
UO-31 = test system: UO-31

Compound: O=C(N/C(=C\c1ccccc1)C1Nc2ccccc2C(=O)O1)c1ccccc1 (stereo not drawn)
- GI50 (786-0): 24.5 µM (inactive)
- GI50 (A498): > 100 µM (inactive)
- GI50 (A549): 87.5 µM (inactive)
- GI50 (ACHN): 39.5 µM (inactive)
- GI50 (BT-549): 21.5 µM (inactive)
- GI50 (CAKI-1): > 100 µM (inactive)
- GI50 (CCRF-CEM): 19.1 µM (inactive)
- GI50 (COLO 205): 30.4 µM (inactive)
- GI50 (DU-145): 54.1 µM (inactive)
- GI50 (EKVX): > 100 µM (inactive)
- GI50 (HCC 2998): 19.8 µM (inactive)
- GI50 (HCT-116): 18.3 µM (inactive)
- GI50 (HCT-15): 31.8 µM
- GI50 (HL-60): 12.4 µM (inactive)
- GI50 (HOP-62): 20.4 µM (inactive)
- GI50 (HOP-92): > 100 µM (inactive)
- GI50 (HT-29): 32.7 µM (inactive)
- GI50 (Hs-578T): 30.3 µM (inactive)
- GI50 (IGROV-1): 34.3 µM (inactive)
- GI50 (K562): 21.5 µM (inactive)
- GI50 (KM12): 15.8 µM (inactive)
- GI50 (LOX IMVI): 18.2 µM (inactive)
- GI50 (M14): 20.2 µM (inactive)
- GI50 (MCF7): 45.8 µM (inactive)
- GI50 (MDA-MB-231): 41.3 µM (inactive)
- GI50 (MDA-MB-435): 34.5 µM (inactive)
- GI50 (MDA-N): 23.7 µM (inactive)
- GI50 (MOLT-4): 18.7 µM (inactive)
- GI50 (Malme-3M): 16.6 µM (inactive)
- GI50 (NCI-H226): 25.6 µM (inactive)
- GI50 (NCI-H23): 37.5 µM (inactive)
- GI50 (NCI-H460): 16.6 µM (inactive)
- GI50 (NCI-H522): 16.3 µM (inactive)
- GI50 (NCI/ADR-RES): 25.9 µM (inactive)
- GI50 (OVCAR-3): 27.3 µM (inactive)
- GI50 (OVCAR-4): 53.7 µM (inactive)
- GI50 (OVCAR-5): > 100 µM (inactive)
- GI50 (OVCAR-8): 21.4 µM (inactive)
- GI50 (PC-3): > 100 µM (inactive)
- GI50 (RPMI-8226): 23.3 µM (inactive)
- GI50 (RXF 393): 23.6 µM (inactive)
- GI50 (SF-268): 44 µM (inactive)
- GI50 (SF-295): 37 µM (inactive)
- GI50 (SF-539): 20.2 µM (inactive)
- GI50 (SK-MEL-28): 23.7 µM (inactive)
- GI50 (SK-MEL-2): 22.5 µM (inactive)
- GI50 (SK-MEL-5): 19.6 µM (inactive)
- GI50 (SK-OV-3): 55.6 µM (inactive)
- GI50 (SN12C): 28.2 µM (inactive)
- GI50 (SNB-19): 33.8 µM (inactive)
- GI50 (SNB-75): 38.8 µM (inactive)
- GI50 (SW-620): 23.6 µM (inactive)
- GI50 (T47D): > 100 µM (inactive)
- GI50 (TK-10): > 100 µM (inactive)
- GI50 (U-251): 22.4 µM (inactive)
- GI50 (UACC-257): 20.6 µM (inactive)
- GI50 (UACC-62): 27.5 µM (inactive)
- GI50 (UO-31): 19.6 µM (inactive)
